From patent US20080138393A1, “Water soluble extract of spinach for prevention and repair of DNA damage” (Access to Business Group International LLC, priority 2006, published 2008)

Tests used:
[1] = test system: THP-1 monocytes; experiment: Protection from oxidative stress, MitoSOX Red mitochondrial superoxide indicator, flow cytometry; type: cell-based; details: 3 hours treatment, then H2O2 challenge 3 hours, sample 100 ug/ml final, positive control 100 uM, 0% = challenged negative control, 100% = unchallenged normal control
From the text: The assay described in this experiment measures oxidative stress occurring within the mitochondria. As discussed above, the biochemical reactions used by mitochondria to generate energy yielding ATP molecules also produce highly oxidizing superoxide free radical as a by-product. Using flow cytometry, the below example measures the protection various test samples provide from oxidative stress by monitoring the status of superoxide within mitochondria following treatment with the test materials.
MitoSOX Red mitochondrial superoxide indicator (Invitrogen cat#M36008) is a fluorescent dye that is selectively taken up by mitochondria. Once in the mitochondria, MitoSOX reacts with superoxide free radical to form a fluorescent product (excitation/emission maxima=510/580 nm) that binds to mitochondrial nucleic acids. A higher fluorescence reading corresponds to a higher level of superoxide free radical being present within the mitochondria.
Cell Culture: One 6 well plate is used per sample. Multiple plates may be prepared simultaneously. Refer to Table I for a plate description. THP-1 monocytes (ATCC cat# TIB-202) are plated at 1.5×10^6 cells/well in 6 well plates (contained in 2 ml/well RMPI 1640 media supplemented with 10% FBS) and incubated for 1 hour before treating.
Treatment: Glutathione monoethylester (GMEE, 100 uM final concentration) is used as a positive control. […]

[2] = Oxygen radical absorbency capacity (ORAC)

Structure (SMILES) | protection from oxidative stress [1] | oxygen radical absorbency capacity (ORAC) [2]
CCOC(=O)CNC(=O)[C@H](CS)NC(=O)CC[C@H](N)C(=O)O [glutathione methyl ester] | 35% | 
COC(=O)c1cc(O)ccc1O [Methylgentisate, methylgentisate] |  | 25,605 μmol Teq/g
